Source: patent US8097628B2, “Compounds” (Glaxo Group Limited, priority 2008, dated 2012)
In brackets after ≈: the same amount, converted by molar mass. Structures can show the parent of a compound that is named as a salt. Where two headings read alike, the source gives them in different places.

Test system: Mycobacterium tuberculosis H37Rv
Assay: Mycobacterium tuberculosis H37Rv Inhibition Assay
Assay type: cell-based
[1] = ATCC 25618 / H37Rv, H37Rv strain (ATCC25618), Middlebrook 7H9, resazurin fluorescence, read-out: MtB MIC
[2] = H37Rv inhibition assay, read-out: MIC value
[3] = ATCC 25618 / H37Rv, read-out: MtB MIC

Compound | MIC [1] | MIC [2] | MIC [3]
Cl.O=c1ccc2ncc(=O)n3c2n1CC3CN1CCC(NCc2ccc(Cl)c(Cl)c2)CC1 (stereo not drawn) [Example 36, 2-[(4-{[(3,4-dichlorophenyl)methyl]amino}-1-piperidinyl)methyl]-1,2-dihydro-3H,8H-2a,5,8a-triazaacenaphthylene-3,8-dione] | 0.015 µg/mL | – | –
N#Cc1ncc(CNC2CCN(C[C@@H]3Cn4c(=O)ccc5ccc(=O)n3c54)CC2)cc1Cl [Example 49, 3-chloro-5-{[(1-{[(1R)-4,9-dioxo-1,2-dihydro-4H,9H-imidazo[1,2,3-ij]-1,8-naphthyridin-1-yl]methyl}-4-piperidinyl)amino]methyl}-2-pyridinecarbonitrile] | 0.07 µg/mL (≈ 0.155 µM) | – | –
O=c1ccc2ccc(=O)n3c2n1C[C@H]3CN1CCC(NCc2ccc(C(F)(F)F)nn2)CC1 [Example 18, (1R)-1-{[4-({[6-(trifluoromethyl)-3-pyridazinyl]methyl}amino)-1-piperidinyl]methyl}-1,2-dihydro-4H,9H-imidazo[1,2,3-ij]-1,8-naphthyridine-4,9-dione] | 0.432 µg/mL (≈ 0.938 µM) | – | –
O=c1ccc2ccc(=O)n3c2n1C[C@H]3CN1CCC(NCc2ccc(CO)c(Cl)c2)CC1 [Example 64, (1R)-1-{[4-({[3-chloro-4-(hydroxymethyl)phenyl]methyl}amino)-1-piperidinyl]methyl}-1,2-dihydro-4H,9H-imidazo[1,2,3-ij]-1,8-naphthyridine-4,9-dione] | – | > 1 µg/mL | –
O=c1ccc2ccc(=O)n3c2n1C[C@H]3CN1CCC(NCc2ccc(C(F)(F)F)nc2)CC1 [Example 9, (1R)-1-{[4-({[6-(trifluoromethyl)-3-pyridinyl]methyl}amino)-1-piperidinyl]methyl}-1,2-dihydro-4H,9H-imidazo[1,2,3-ij]-1,8-naphthyridine-4,9-dione] | – | – | 0.14 µg/mL (≈ 0.305 µM)
O=c1ccc2ncc(=O)n3c2n1CC3CN1CCC(NCc2cccc(Cl)c2)CC1 (stereo not drawn) [Example 22, 2-[(4-{[(3-chlorophenyl)methyl]amino}-1-piperidinyl)methyl]-1,2-dihydro-3H,8H-2a,5,8a-triazaacenaphthylene-3,8-dione] | 1.06 µg/mL (≈ 2.5 µM) | > 1 µg/mL | –
Cc1ncc(CNC2CCN(C[C@@H]3Cn4c(=O)ccc5ccc(=O)n3c54)CC2)cc1Cl.Cl [Example 1, (1R)-1-[(4-{[(5-chloro-6-methyl-3-pyridinyl)methyl]amino}-1-piperidinyl)methyl]-1,2-dihydro-4H,9H-imidazo[1,2,3-ij]-1,8-naphthyridine-4,9-dione hydrochloride] | 0.04 µg/mL | – | –
COc1cc(CNC2CCN(CC3Cn4c(=O)ccc5ncc(=O)n3c54)CC2)ccc1C (stereo not drawn) [Example 57, 2-{[4-({[4-methyl-3-(methyloxy)phenyl]methyl}amino)-1-piperidinyl]methyl}-1,2-dihydro-3H,8H-2a,5,8a-triazaacenaphthylene-3,8-dione] | 1.09 µg/mL (≈ 2.5 µM) | – | –
O=c1ccc2ncc(=O)n3c2n1C[C@@H]3CN1CCC(NCc2ccc(C(F)(F)F)nc2)CC1 [Example 48, (2S)-2-{[4-({[6-(trifluoromethyl)-3-pyridinyl]methyl}amino)-1-piperidinyl]methyl}-1,2-dihydro-3H,8H-2a,5,8a-triazaacenaphthylene-3,8-dione] | 2.3 µg/mL (≈ 5 µM) | > 1 µg/mL | –
O=c1ccc2ccc(=O)n3c2n1C[C@H]3CN1CCC(NCc2cnc(CO)c(Cl)c2)CC1 [Example 56, (1R)-1-{[4-({[5-chloro-6-(hydroxymethyl)-3-pyridinyl]methyl}amino)-1-piperidinyl]methyl}-1,2-dihydro-4H,9H-imidazo[1,2,3-ij]-1,8-naphthyridine-4,9-dione] | 0.3 µg/mL (≈ 0.658 µM) | – | –
COc1ccc(CNC2CCN(CC3Cn4c(=O)ccc5ncc(=O)n3c54)CC2)cc1Cl (stereo not drawn) [Example 39, 2-{[4-({[3-chloro-4-(methyloxy)phenyl]methyl}amino)-1-piperidinyl]methyl}-1,2-dihydro-3H,8H-2a,5,8a-triazaacenaphthylene-3,8-dione] | 1.14 µg/mL (≈ 2.5 µM) | > 1 µg/mL | –
O=c1ccc2ncc(=O)n3c2n1CC3CN1CCC(NCc2ccc(OC(F)(F)F)cc2)CC1 (stereo not drawn) [Example 27, 2-({4-[({4-[(trifluoromethyl)oxy]phenyl}methyl)amino]-1-piperidinyl}methyl)-1,2-dihydro-3H,8H-2a,5,8a-triazaacenaphthylene-3,8-dione] | 2.38 µg/mL (≈ 5 µM) | > 1 µg/mL | –
O=c1ccc2ncc(=O)n3c2n1CC3CN1CCC(NCc2cnc(Cl)c(Cl)c2)CC1 (stereo not drawn) [Example 15, 2-[(4-{[(5,6-dichloro-3-pyridinyl)methyl]amino}-1-piperidinyl)methyl]-1,2-dihydro-3H,8H-2a,5,8a-triazaacenaphthylene-3,8-dione] | < 0.018 µg/mL | – | –
Cc1ncc(CNC2CCN(C[C@@H]3Cn4c(=O)ccc5ncc(=O)n3c54)CC2)cc1Cl.Cl [Example 2, (2R)-2-[(4-{[(5-chloro-6-methyl-3-pyridinyl)methyl]amino}-1-piperidinyl)methyl]-1,2-dihydro-3H,8H-2a,5,8a-triazaacenaphthylene-3,8-dione hydrochloride] | 0.04 µg/mL | – | –
O=c1ccc2ncc(=O)n3c2n1CC3CN1CCC(NCc2ccc(F)c(F)c2)CC1 (stereo not drawn) [Example 44, 2-[(4-{[(3,4-difluorophenyl)methyl]amino}-1-piperidinyl)methyl]-1,2-dihydro-3H,8H-2a,5,8a-triazaacenaphthylene-3,8-dione] | 0.267 µg/mL (≈ 0.625 µM) | – | –
O=c1ccc2ncc(=O)n3c2n1CC3CN1CCC(NCc2cnc(Cl)s2)CC1 (stereo not drawn) [Example 37, 2-[(4-{[(2-chloro-1,3-thiazol-5-yl)methyl]amino}-1-piperidinyl)methyl]-1,2-dihydro-3H,8H-2a,5,8a-triazaacenaphthylene-3,8-dione] | 2.17 µg/mL (≈ 5 µM) | – | –
O=c1ccc2ncc(=O)n3c2n1CC3CN1CCC(NCc2cncc(Cl)c2)CC1 (stereo not drawn) [Example 42, 2-[(4-{[(5-chloro-3-pyridinyl)methyl]amino}-1-piperidinyl)methyl]-1,2-dihydro-3H,8H-2a,5,8a-triazaacenaphthylene-3,8-dione] | 1.07 µg/mL (≈ 2.5 µM) | – | –
O=c1ccc2ncc(=O)n3c2n1CC3CN1CCC(NCc2cc(Br)cs2)CC1 (stereo not drawn) [Example 35, 2-[(4-{[(4-bromo-2-thienyl)methyl]amino}-1-piperidinyl)methyl]-1,2-dihydro-3H,8H-2a,5,8a-triazaacenaphthylene-3,8-dione] | 1.19 µg/mL (≈ 2.5 µM) | > 1 µg/mL | –
COCCc1ncc(CNC2CCN(C[C@@H]3Cn4c(=O)ccc5ncc(=O)n3c54)CC2)cc1Cl [Example 65, (2R)-2-({4-[({5-chloro-6-[2-(methyloxy)ethyl]-3-pyridinyl}methyl)amino]-1-piperidinyl}methyl)-1,2-dihydro-3H,8H-2a,5,8a-triazaacenaphthylene-3,8-dione] | – | > 1 µg/mL | –
Cc1cc(CNC2CCN(CC3Cn4c(=O)ccc5ncc(=O)n3c54)CC2)cnc1F (stereo not drawn) [Example 33, 2-[(4-{[(6-fluoro-5-methyl-3-pyridinyl)methyl]amino}-1-piperidinyl)methyl]-1,2-dihydro-3H,8H-2a,5,8a-triazaacenaphthylene-3,8-dione] | 0.531 µg/mL (≈ 1.25 µM) | – | –
Cc1ncc(CNC2CCN(C[C@@H]3Cn4c(=O)ccc5ncc(=O)n3c54)CC2)cc1Br [Example 51, (2R)-2-[(4-{[(5-bromo-6-methyl-3-pyridinyl)methyl]amino}-1-piperidinyl)methyl]-1,2-dihydro-3H,8H-2a,5,8a-triazaacenaphthylene-3,8-dione hydrochloride] | – | – | 0.015 µg/mL
O=c1ccc2ncc(=O)n3c2n1CC3CN1CCC(NCc2ccc(Cl)cc2)CC1 (stereo not drawn) [Example 21, 2-[(4-{[(4-chlorophenyl)methyl]amino}-1-piperidinyl)methyl]-1,2-dihydro-3H,8H-2a,5,8a-triazaacenaphthylene-3,8-dione] | 0.266 µg/mL (≈ 0.625 µM) | – | –
O=c1ccc2ncc(=O)n3c2n1CC3CN1CCC(NCc2ccc(Br)cc2)CC1 (stereo not drawn) [Example 29, 2-[(4-{[(4-bromophenyl)methyl]amino}-1-piperidinyl)methyl]-1,2-dihydro-3H,8H-2a,5,8a-triazaacenaphthylene-3,8-dione] | 0.147 µg/mL (≈ 0.313 µM) | – | –
Cc1ncc(CNC2CCN(CC3Cn4c(=O)ccc5ncc(=O)n3c54)CC2)cc1F (stereo not drawn) [Example 52, 2-[(4-{[(5-fluoro-6-methyl-3-pyridinyl)methyl]amino}-1-piperidinyl)methyl]-1,2-dihydro-3H,8H-2a,5,8a-triazaacenaphthylene-3,8-dione] | > 2.12 µg/mL | > 1 µg/mL | –
O=c1cnc2ccc(=O)n3c2n1C[C@H]3CN1CCC(NCc2ccc(Cl)c(Cl)c2)CC1 [Example 10, (1R)-1-[(4-{[(3,4-dichlorophenyl)methyl]amino}-1-piperidinyl)methyl]-1,2-dihydro-3H,8H-2a,5,8a-triazaacenaphthylene-3,8-dione] | < 0.02 µg/mL | – | –
Cl.O=c1ccc2ncc(=O)n3c2n1C[C@H]3CN1CCC(NCc2ccc(C(F)(F)F)nc2)CC1 [Example 46, (2R)-2-{[4-({[6-(trifluoromethyl)-3-pyridinyl]methyl}amino)-1-piperidinyl]methyl}-1,2-dihydro-3H,8H-2a,5,8a-triazaacenaphthylene-3,8-dione hydrochloride] | 0.078 µg/mL | – | –
Cc1ncc(CNC2CCN(C[C@@H]3Cn4c(=O)ccc5ccc(=O)n3c54)CC2)cc1Br.Cl [Example 12, (1R)-1-[(4-{[(5-bromo-6-methyl-3-pyridinyl)methyl]amino}-1-piperidinyl)methyl]-1,2-dihydro-4H,9H-imidazo[1,2,3-ij]-1,8-naphthyridine-4,9-dione hydrochloride] | < 0.019 µg/mL | – | –
Cc1ccc(CNC2CCN(CC3Cn4c(=O)ccc5ncc(=O)n3c54)CC2)cc1F (stereo not drawn) [Example 43, 2-[(4-{[(3-fluoro-4-methylphenyl)methyl]amino}-1-piperidinyl)methyl]-1,2-dihydro-3H,8H-2a,5,8a-triazaacenaphthylene-3,8-dione] | 0.066 µg/mL (≈ 0.156 µM) | – | –
O=c1ccc2ncc(=O)n3c2n1C[C@@H]3CN1CCC(NCc2ccc(Cl)c(Cl)c2)CC1 [Example 47, (2S)-2-[(4-{[(3,4-dichlorophenyl)methyl]amino}-1-piperidinyl)methyl]-1,2-dihydro-3H,8H-2a,5,8a-triazaacenaphthylene-3,8-dione] | 0.072 µg/mL (≈ 0.156 µM) | – | –
Cc1ncc(CNC2CCN(C[C@H]3Cn4c(=O)ccc5ncc(=O)n3c54)CC2)cc1Cl [Example 53, (2S)-2-[(4-{[(5-chloro-6-methyl-3-pyridinyl)methyl]amino}-1-piperidinyl)methyl]-1,2-dihydro-3H,8H-2a,5,8a-triazaacenaphthylene-3,8-dione] | 0.83 µg/mL (≈ 1.88 µM) | – | –
